Results published in patent US20170190671A1, “BIS(ARYL)CATECHOL DERIVATIVES AS HERBICIDES” (E I DU PONT DE NEMOURS AND COMPANY, priority 2014, published 2017).

How the values were obtained:
Assay in all cases: Test C preemergence
Format in all cases: in vivo
[1] = test system: Italian ryegrass (Lolium multiflorum); settings: Lolium multiflorum, pre-emergence, 336 h, scale 0 to 100, read-out: Plant response rating, Ryegrass, Italian
Procedure, shortened: (§1)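 Greenhouse test, preemergence on seeded soil or postemergence on 1- to 4-leaf plants. Response is a visual 0-100 rating versus controls, taken 13-15 days after treatment.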

[2] = test system: blackgrass (Alopecurus myosuroides); settings: Alopecurus myosuroides, pre-emergence, 336 h, scale 0 to 100, read-out: Plant response rating, Blackgrass
Procedure, shortened: as §1

corn (Zea mays) = settings: Zea mays, pre-emergence, 336 h, scale 0 to 100
Procedure, shortened: as §1

[3] = test system: giant foxtail (Setaria faberii); settings: Setaria faberi, pre-emergence, 336 h, scale 0 to 100, read-out: Plant response rating, Foxtail, Giant
Procedure, shortened: as §1

[4] = test system: lambsquarters (Chenopodium album); settings: Chenopodium album, pre-emergence, 336 h, scale 0 to 100, read-out: Plant response rating, Lambsquarters
Procedure, shortened: as §1

[5] = test system: large (Lg) crabgrass (Digitaria sanguinalis); settings: Digitaria sanguinalis, pre-emergence, 336 h, scale 0 to 100, read-out: Plant response rating, Crabgrass, Large
Procedure, shortened: as §1

[6] = test system: morningglory (Ipomoea coccinea); settings: Ipomoea, pre-emergence, 336 h, scale 0 to 100, read-out: Plant response rating, Morningglory
Procedure, shortened: as §1

[7] = test system: oilseed rape (Brassica napus); settings: Brassica napus, pre-emergence, scale 0 to 100, read-out: Plant response rating, Oilseed Rape
Procedure, shortened: as §1

[8] = test system: pigweed (Amaranthus retroflexus); settings: Amaranthus retroflexus, pre-emergence, 336 h, scale 0 to 100, read-out: Plant response rating, Pigweed
Procedure, shortened: as §1

[9] = test system: ragweed (common ragweed, Ambrosia elatior); settings: Ambrosia artemisiifolia, pre-emergence, 336 h, scale 0 to 100, read-out: Plant response rating, Ragweed
Procedure, shortened: as §1

soybean (Glycine max) = settings: Glycine max, pre-emergence, scale 0 to 100, read-out: Plant response rating, Soybean
Procedure, shortened: as §1

[10] = test system: velvetleaf (Abutilon theophrasti); settings: Abutilon theophrasti, pre-emergence, scale 0 to 100, read-out: Plant response rating, Velvetleaf
Procedure, shortened: as §1

[11] = test system: waterhemp (common waterhemp, Amaranthus rudis); settings: Amaranthus tuberculatus, pre-emergence, scale 0 to 100, read-out: Plant response rating, Waterhemp
Procedure, shortened: as §1

[12] = test system: winter wheat (Triticum aestivum); settings: Triticum aestivum, pre-emergence, 336 h, scale 0 to 100, read-out: Plant response rating, Wheat
Procedure, shortened: as §1

[13] = test system: yellow nutsedge (Cyperus esculentus); settings: Cyperus, pre-emergence, 336 h, scale 0 to 100, read-out: Plant response rating, Nutsedge, Yellow
Procedure, shortened: as §1

Structure (SMILES): N#Cc1cccc(Oc2ncc(Cl)cn2)c1Oc1cnc(Cl)cn1 [Compound 32, 2-[(5-chloro-2-pyrazinyl)oxy]-3-[(5-chloro-2-pyrimidinyl)oxy]benzonitrile]
- pest or weed control at 31 g/ha ([1]; 31 g ai/ha, preemergence): 50%
- pest or weed control at 62 g/ha ([1]; 62 g ai/ha, preemergence): 80%
- pest or weed control at 125 g/ha ([1]; 125 g ai/ha, preemergence): 90%
- pest or weed control at 16 g/ha ([1]; Preemergence, 16 g ai/ha): 5%
- pest or weed control at 31 g/ha ([2]; 31 g ai/ha, preemergence): 70%
- pest or weed control at 62 g/ha ([2]; 62 g ai/ha, preemergence): 90%
- pest or weed control at 125 g/ha ([2]; 125 g ai/ha, preemergence): 95%
- pest or weed control at 16 g/ha ([2]; Preemergence, 16 g ai/ha): 0%
- Corn plant response rating (crop injury, 0 = no effect, 100 = complete kill) at 31 g/ha (corn (Zea mays); 31 g ai/ha, preemergence): 60%
- Corn plant response rating (crop injury, 0 = no effect, 100 = complete kill) at 62 g/ha (corn (Zea mays); 62 g ai/ha, preemergence): 65%
- Corn plant response rating (crop injury, 0 = no effect, 100 = complete kill) at 125 g/ha (corn (Zea mays); 125 g ai/ha, preemergence): 65%
- Corn plant response rating (crop injury, 0 = no effect, 100 = complete kill) at 16 g/ha (corn (Zea mays); Preemergence, 16 g ai/ha): 5%
- pest or weed control at 31 g/ha ([3]; 31 g ai/ha, preemergence): 98%
- pest or weed control at 62 g/ha ([3]; 62 g ai/ha, preemergence): 100%
- pest or weed control at 125 g/ha ([3]; 125 g ai/ha, preemergence): 100%
- pest or weed control at 16 g/ha ([3]; Preemergence, 16 g ai/ha): 85%
- pest or weed control at 31 g/ha ([4]; 31 g ai/ha, preemergence): 90%
- pest or weed control at 62 g/ha ([4]; 62 g ai/ha, preemergence): 90%
- pest or weed control at 125 g/ha ([4]; 125 g ai/ha, preemergence): 100%
- pest or weed control at 16 g/ha ([4]; Preemergence, 16 g ai/ha): 60%
- pest or weed control at 31 g/ha ([5]; 31 g ai/ha, preemergence): 98%
- pest or weed control at 62 g/ha ([5]; 62 g ai/ha, preemergence): 100%
- pest or weed control at 125 g/ha ([5]; 125 g ai/ha, preemergence): 100%
- pest or weed control at 16 g/ha ([5]; Preemergence, 16 g ai/ha): 98%
- pest or weed control at 31 g/ha ([6]; 31 g ai/ha, preemergence): 10%
- pest or weed control at 62 g/ha ([6]; 62 g ai/ha, preemergence): 40%
- pest or weed control at 125 g/ha ([6]; 125 g ai/ha, preemergence): 90%
- pest or weed control at 16 g/ha ([6]; Preemergence, 16 g ai/ha): 20%
- plant injury at 31 g/ha ([7]; 31 g ai/ha, preemergence): 95%
- plant injury at 62 g/ha ([7]; 62 g ai/ha, preemergence): 95%
- plant injury at 125 g/ha ([7]; 125 g ai/ha, preemergence): 95%
- plant injury at 16 g/ha ([7]; Preemergence, 16 g ai/ha): 10%
- pest or weed control at 31 g/ha ([8]; 31 g ai/ha, preemergence): 100%
- pest or weed control at 62 g/ha ([8]; 62 g ai/ha, preemergence): 100%
- pest or weed control at 125 g/ha ([8]; 125 g ai/ha, preemergence): 100%
- pest or weed control at 16 g/ha ([8]; Preemergence, 16 g ai/ha): 100%
- pest or weed control at 31 g/ha ([9]; 31 g ai/ha, preemergence): 20%
- pest or weed control at 62 g/ha ([9]; 62 g ai/ha, preemergence): 10%
- pest or weed control at 125 g/ha ([9]; 125 g ai/ha, preemergence): 50%
- pest or weed control at 16 g/ha ([9]; Preemergence, 16 g ai/ha): 10%
- plant injury at 31 g/ha (soybean (Glycine max); 31 g ai/ha, preemergence): 45%
- plant injury at 62 g/ha (soybean (Glycine max); 62 g ai/ha, preemergence): 45%
- plant injury at 125 g/ha (soybean (Glycine max); 125 g ai/ha, preemergence): 90%
- plant injury at 16 g/ha (soybean (Glycine max); Preemergence, 16 g ai/ha): 55%
- pest or weed control at 31 g/ha ([10]; 31 g ai/ha, preemergence): 40%
- pest or weed control at 62 g/ha ([10]; 62 g ai/ha, preemergence): 75%
- pest or weed control at 125 g/ha ([10]; 125 g ai/ha, preemergence): 85%
- pest or weed control at 16 g/ha ([10]; Preemergence, 16 g ai/ha): 5%
- pest or weed control at 31 g/ha ([11]; 31 g ai/ha, preemergence): 100%
- pest or weed control at 62 g/ha ([11]; 62 g ai/ha, preemergence): 100%
- pest or weed control at 125 g/ha ([11]; 125 g ai/ha, preemergence): 100%
- pest or weed control at 16 g/ha ([11]; Preemergence, 16 g ai/ha): 100%
- plant injury at 31 g/ha ([12]; 31 g ai/ha, preemergence): 0%
- plant injury at 62 g/ha ([12]; 62 g ai/ha, preemergence): 0%
- plant injury at 125 g/ha ([12]; 125 g ai/ha, preemergence): 5%
- plant injury at 16 g/ha ([12]; Preemergence, 16 g ai/ha): 0%
- pest or weed control at 31 g/ha ([13]; 31 g ai/ha, preemergence): 35%
- pest or weed control at 62 g/ha ([13]; 62 g ai/ha, preemergence): 60%
- pest or weed control at 125 g/ha ([13]; 125 g ai/ha, preemergence): 75%
- pest or weed control at 16 g/ha ([13]; Preemergence, 16 g ai/ha): 5%
